TGI and GI50 data for 13 molecules are collected here from PubChem BioAssay (NCI).

Among the test systems are CAKI-1 renal; HCT-116 colon; TK-10 renal; SR leukemia; COLO 205 colon; UACC-257 melanoma; KM12 colon; RXF 393 renal; MCF7 breast; CCRF-CEM leukemia.
Assay in all cases: growth of human tumour cells (NCI), 48 h

The structures appear in SMILES notation. Several values for one entry are separate records, joined by “and”; a condition that tells them apart may be missing. Equal values may be shown once.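 Cultured in 96-well plates, cells were exposed to test compound for 48 hours across five concentrations. GI50 = concentration required for 50% inhibition of growth. TGI marks complete inhibition of growth.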

In the case of `COc1cc(O)ccc1C(=S)SC`, the TGI in the assay on CAKI-1 renal, in the assay on HCT-116 colon, in the assay on TK-10 renal, with SR leukemia, with COLO 205 colon and in the assay with UACC-257 melanoma was > 100 µM in each case. Also, the TGI in the assay on KM12 colon, with RXF 393 renal and in the assay on MCF7 breast was > 100 µM each time.
As to `Cc1ccccc1NC(=O)CSc1nnc(-c2ccc(N=Cc3ccc(Cl)cc3)cc2)o1`, the TGI in the assay on HCT-116 colon, with TK-10 renal, in the assay on SR leukemia, with COLO 205 colon, in the assay on UACC-257 melanoma and with KM12 colon was > 100 µM throughout. In addition, the TGI with CCRF-CEM leukemia and in the assay on RXF 393 renal was > 100 µM in each case.
As for `O=C1NC(O)n2c(=O)[nH]c(=O)n21` (stereo not drawn), the TGI in the assay on CAKI-1 renal, in the assay with HCT-116 colon, in the assay with TK-10 renal, in the assay on SR leukemia, with COLO 205 colon and in the assay on UACC-257 melanoma was > 100 µM throughout. Also, the TGI in the assay on KM12 colon, with CCRF-CEM leukemia and with RXF 393 renal was > 100 µM in each case.
On to `c1ccc2c(c1)[nH]c1c2nc2ccccn21`, for which the TGI in the assay with CAKI-1 renal, with HCT-116 colon, with TK-10 renal, in the assay on SR leukemia, in the assay with COLO 205 colon and in the assay with UACC-257 melanoma was > 100 µM in each case. The TGI in the assay on KM12 colon, in the assay with CCRF-CEM leukemia and with RXF 393 renal was > 100 µM each time. Besides, the GI50 in the assay on CCRF-CEM leukemia was 48.4 µM and > 100 µM.
Turning to `COc1cc2c(cc1OCCNC(=O)/C=C1\C[C@H]3C=Nc4cc(OCc5ccccc5)c(OC)cc4C(=O)N3C1)N=C[C@@H]1CCCN1C2=O`, the GI50 in the assay on CAKI-1 renal is 32.3 µM; with HCT-116 colon, 2.93 µM; in the assay on TK-10 renal it was 7.07 µM; in the assay with SR leukemia, 1.46 µM; in the assay on COLO 205 colon it was 14.9 µM; with KM12 colon it was 9.31 µM. Further, the GI50 was 1.98 µM in the assay on RXF 393 renal and 2.62 µM in the assay on MCF7 breast. For the same molecule, the TGI with CAKI-1 renal is > 100 µM; in the assay on HCT-116 colon, 11.9 µM; in the assay on TK-10 renal, 36.7 µM; in the assay on SR leukemia, 4.56 µM; in the assay on COLO 205 colon, 68.5 µM; in the assay with KM12 colon it was 28.8 µM. Besides, the TGI with RXF 393 renal came out at 4.98 µM; in the assay with MCF7 breast, 9.2 µM.
As to `O=C1NC(O)c2cc3ccccc3cc2O1` (stereo not drawn), the TGI with HCT-116 colon is 51.1 µM; in the assay with TK-10 renal it was > 100 µM; in the assay on SR leukemia, 71.3 µM; in the assay on COLO 205 colon, > 100 µM; with UACC-257 melanoma, > 100 µM; in the assay with KM12 colon, > 100 µM. The TGI in the assay with CCRF-CEM leukemia, in the assay on RXF 393 renal and in the assay on MCF7 breast was > 100 µM in each case.
`COc1cc2c(cc1C)NC(=O)/C2=C/c1ccnc2ccccc12`: the GI50 in the assay with CAKI-1 renal was 16.2 µM; in the assay with HCT-116 colon it was 24.4 µM; in the assay on TK-10 renal, 35.8 µM; in the assay on SR leukemia it was 8.47 µM; with COLO 205 colon, 38.9 µM; in the assay on UACC-257 melanoma it was 9.77 µM. The GI50 in the assay with KM12 colon was 26.2 µM; with MCF7 breast, 8.72 µM. The TGI in the assay with CAKI-1 renal was > 50 µM; in the assay on HCT-116 colon, > 50 µM; in the assay on TK-10 renal, > 50 µM; in the assay with SR leukemia, > 50 µM; with COLO 205 colon it was > 50 µM; with UACC-257 melanoma, 48.9 µM. Also, the TGI in the assay with KM12 colon and in the assay on MCF7 breast was > 50 µM throughout.
As to `Cc1cc(=O)[nH]c(NNC(C#N)c2cccc([N+](=O)[O-])c2)n1` (stereo not drawn), the TGI in the assay with CAKI-1 renal, in the assay on HCT-116 colon, in the assay on TK-10 renal, in the assay on SR leukemia, in the assay with COLO 205 colon and with UACC-257 melanoma was > 100 µM each time. Besides, the TGI in the assay on KM12 colon, in the assay on CCRF-CEM leukemia and with RXF 393 renal was > 100 µM each time.
Take `O=c1c2cccnc2ncn1CCCN1CCCCC1`: the TGI with CAKI-1 renal, in the assay on HCT-116 colon, in the assay on TK-10 renal, in the assay on SR leukemia, in the assay on COLO 205 colon and in the assay on KM12 colon was > 100 µM in each case. For the same molecule, the TGI in the assay on CCRF-CEM leukemia and in the assay with RXF 393 renal was > 100 µM in each case.
On to `CCOc1ccc(NC(=O)/C(CC(=O)c2c[n+](=O)c3ccccc3n2[O-])=N\OCCCc2ccccc2)cc1`, for which the TGI in the assay with CAKI-1 renal, with HCT-116 colon, with TK-10 renal, in the assay with SR leukemia, in the assay on COLO 205 colon and in the assay on UACC-257 melanoma was > 100 µM each time. Besides, the TGI with KM12 colon, with CCRF-CEM leukemia and in the assay with RXF 393 renal was > 100 µM in each case.
With `O=C1CC23CCCCCCCCCCC2(C1)CC(=O)C3` (stereo not drawn), the TGI with TK-10 renal was > 100 µM; in the assay on SR leukemia it was 56.5 µM; in the assay on COLO 205 colon, 33.5 µM; in the assay with UACC-257 melanoma it was > 100 µM; with KM12 colon, 45 µM; in the assay with CCRF-CEM leukemia it was 44.4 µM. Besides, the TGI with RXF 393 renal stood at 89.2 µM.
For `Cc1cccc(N2C(=O)/C(=C/C(Cl)=C/c3ccc([N+](=O)[O-])cc3)SC2=S)c1C`, the GI50 is 1.33 µM with HCT-116 colon; 3.17 µM with TK-10 renal; 0.404 µM with SR leukemia; 1.81 µM in the assay with COLO 205 colon; 0.741 µM in the assay on CCRF-CEM leukemia; 1.63 µM in the assay on RXF 393 renal. The GI50 in the assay on MCF7 breast was 0.786 µM. Moreover, the TGI in the assay on HCT-116 colon was 3.08 µM; in the assay with TK-10 renal it was > 100 µM; with SR leukemia it was > 100 µM; in the assay on COLO 205 colon it was 5.08 µM; in the assay with CCRF-CEM leukemia it was > 89.5 µM; with RXF 393 renal, 3.52 µM. For the same molecule, in the assay on MCF7 breast, the TGI was > 100 µM.
`C=C(C)C1CC(=O)C(C)=C(O)C1` (stereo not drawn): the TGI with CAKI-1 renal, in the assay on HCT-116 colon, with TK-10 renal, with SR leukemia, with COLO 205 colon and in the assay on UACC-257 melanoma was > 100 µM each time. Moreover, the TGI in the assay on KM12 colon, in the assay with CCRF-CEM leukemia and in the assay with MCF7 breast was > 100 µM in each case.
